# Source: patent US8324209B2, “Pesticidal compositions” (Dow AgroSciences, LLC, priority 2008, dated 2012)
# System: cotton aphid (Aphis gossypii)
# Assay: Insecticidal test for cotton aphid in foliar spray assay on squash
# Format: in vivo
# Settings: 200 ppm foliar spray on squash cotyledons; live aphids counted after 3 days; Corrected % Control (Abbott's formula); 4 replications
# Protocol: The compounds identified in the foregoing examples were tested against cotton aphid using procedures described hereinafter. Insecticidal Test for Cotton Aphid (Aphis gossypii) in Foliar Spray Assay Squash seedlings with fully expanded cotyledon leaves were trimmed to one cotyledon per plant and infested with cotton aphid (wingless adults and nymphs) 1 day prior to chemical application. Each plant was examined before chemical application to ensure uniform infestation (ca. 30-70 aphids per plant). Compounds (2 mg) were dissolved in 2 mL of acetone/methanol (1:1) solvent, forming stock solutions of 1000 ppm. The stock solutions were diluted 5× with 0.025% Tween 20 in H2O to obtain a solution at 200 ppm. A hand-held Devilbiss aspirator type sprayer was used to apply the spray solutions until runoff to both sides of the squash cotyledon leaves. Four plants (4 replications) were used for each compound. Reference plants (solvent check) were sprayed with the diluent only. Treated plants were held in a holding room for 3 days at approximately 23° C. and 40% relative humidity (RH) before the number of live aphids on each plant was recorded. Insecticidal activity was measured by Corrected % Control using Abbott's correction formula and presented in Table 1-Activity: Corrected % Control=100*(X−Y)/X • where X=No. of live aphids on solvent check plants • Y=No. of live aphids on treated plants Results are shown in Table 1.
row,Structure (SMILES),"% Control at ppm, against cotton aphid on squash (foliar spray)"
1,"CC(c1cnc(C(F)(F)F)nc1)S(C)(=O)=NC#N (stereo not drawn) [Compound 3, methyl(oxido){1-[2-(trifluoromethyl)pyrimidin-5-yl]ethyl}-λ^4-sulfanylidenecyanamide]",A (80-100)
2,"CC(c1cnc(Cl)nc1)S(C)(=O)=NC#N (stereo not drawn) [Compound 1, [1-(2-chloropyrimidin-5-yl)ethyl](methyl)oxido-λ^4-sulfanylidenecyanamide]",A (80-100)
3,"CS(=O)(Cc1ccc(Cl)nn1)=NC#N (stereo not drawn) [Compound 2, [(3-chloropyridazin-6-yl)methyl](methyl)oxido-λ^4-sulfanylidenecyanamide]",A (80-100)
